These results are taken from US20240366589A1, “NHE3-BINDING COMPOUNDS AND METHODS FOR INHIBITING PHOSPHATE TRANSPORT” (Ardelyx, Inc., priority 2013, published 2024).

Entries after “also recorded” stand apart in the source; their conditions may differ.

For experiment [1], the system named is uremic rat model of CKD featuring vascular calcification. In words: Rat model of uremia-associated vascular calcification (5/6 nephrectomy, calcitriol, 0.9% P diet). The class given is in vivo. The source says: Chronic kidney disease (CKD) has multiple pathogenic mechanisms, and advanced CKD is often characterized by disordered mineral metabolism (e.g., hyperphosphatemia, hypercalcemia) and vascular calcification. Studies were thus performed to test the effectiveness of the dihydrochloride salt of Cpd 002 (from Table E4, as the dihydrochloride salt) in a uremic rat model of CKD featuring vascular calcification. This model is characterized by renal insufficiency and regular active Vitamin D3 administration to promote hyperphosphatemia and vascular calcification (see Lopez et al., J. Am. Soc. Nephrol. 17:795-804, 2006). The study utilized Spraque-Dawley rats treated as follows: 5/6th nephrectomy by excision; regular calcitriol administration (active vitamin D3) 80 ng/kg i.p. 3/week; and fed a purified 0.9% P diet (inorganic phosphorus).
Rats were stratified into two experimental groups by serum creatinine levels of 0.8 to 1.5 mg/dl and body weight, fed drug-in-chow with powdered vehicle diet or the same diet with Cpd 002 (0.065 mg/g chow) mixed-in, and monitored for weekly body weight and selected serum parameters, daily clinical observations, and endpoint calcification. The study design is illustrated in FIG. 2.
Selected experimental groups were fed vehicle (n=12) or Cpd 002 (n=12) at enrollment (day 0).

Experiment [2] deals with T1, Rat NHE3 (Rattus norvegicus, UniProt P26433).
T1 construct: expressed in transfected cells; host or cells: Opossum kidney (OK) cells (ATCC), electroporation
In words: Cell-based NHE3 activity under persistent conditions (60 min incubation, washout), rat NHE3. As to conditions: Table E5; 40 min after compound washout; dihydrochloride salt. On the procedure:
Cell-based activity of NHE3 Activity under ‘Persistent’ Conditions. The ability of compounds to inhibit Rat NHE3-mediated Na^+-dependent H^+ antiport after application and washout was measured using a modification of the pH sensitive dye method described above. Opossum kidney (OK) cells were obtained from the ATCC and propagated per their instructions. The rat NHE3 gene was introduced into OK cells via electroporation, and cells were seeded into 96 well plates and grown overnight. Medium was aspirated from the wells, cells were washed twice with NaCl-HEPES buffer (100 mM NaCl, 50 mM HEPES, 10 mM glucose, 5 mM KCl, 2 mM CaCl2, 1 mM MgCl2, pH 7.4), then overlayed with NaCl-HEPES buffer containing 0-30 μM test compound.
After a 60 min incubation, the test drug containing buffer was aspirated from the cells, cells were washed twice with NaCl-HEPES buffer without drug, then incubated for 30 min at room temperature with NH4Cl-HEPES buffer (20 mM NH4Cl, 80 mM NaCl, 50 mM HEPES, 5 mM KCl, 2 mM CaCl2, 1 mM MgCl2, pH 7.4) containing 5 μM BCECF-AM. Cells were washed twice with Ammonium free, Na^+-free HEPES (100 mM choline, 50 mM HEPES, 10 mM glucose, 5 mM KCl, 2 mM CaCl2, 1 mM MgCl2, pH 7.4) and incubated in the same buffer for 10 minutes at room temperature to lower intracellular pH. […]

Experiment [3] has as its system absorption of sodium from the intestinal lumen. In words: Fecal form score (FFS) 16 h after oral dose in rats. The format is in vivo, rat. The settings on record: in words. Put shortly:
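Eight-week-old Sprague-Dawley rats (n=6) dosed by oral gavage with compound or water vehicle between 4 and 5 PM, then housed in metabolic cages with food and water ad libitum. At 16 h, fecal form scored 1 (normal pellet) to 5 (liquid streams) by two observers; group mean reported.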

Setting [4] is: endpoint day 27, 0.065 mg/g chow, vs vehicle.
The mark [5] stands for this setting: endpoint, 0.065 mg/g chow, vs vehicle.
Where [6] appears, read: organ weight/body weight, 0.065 mg/g chow, vs vehicle.

T1 sequence (P26433 29-831): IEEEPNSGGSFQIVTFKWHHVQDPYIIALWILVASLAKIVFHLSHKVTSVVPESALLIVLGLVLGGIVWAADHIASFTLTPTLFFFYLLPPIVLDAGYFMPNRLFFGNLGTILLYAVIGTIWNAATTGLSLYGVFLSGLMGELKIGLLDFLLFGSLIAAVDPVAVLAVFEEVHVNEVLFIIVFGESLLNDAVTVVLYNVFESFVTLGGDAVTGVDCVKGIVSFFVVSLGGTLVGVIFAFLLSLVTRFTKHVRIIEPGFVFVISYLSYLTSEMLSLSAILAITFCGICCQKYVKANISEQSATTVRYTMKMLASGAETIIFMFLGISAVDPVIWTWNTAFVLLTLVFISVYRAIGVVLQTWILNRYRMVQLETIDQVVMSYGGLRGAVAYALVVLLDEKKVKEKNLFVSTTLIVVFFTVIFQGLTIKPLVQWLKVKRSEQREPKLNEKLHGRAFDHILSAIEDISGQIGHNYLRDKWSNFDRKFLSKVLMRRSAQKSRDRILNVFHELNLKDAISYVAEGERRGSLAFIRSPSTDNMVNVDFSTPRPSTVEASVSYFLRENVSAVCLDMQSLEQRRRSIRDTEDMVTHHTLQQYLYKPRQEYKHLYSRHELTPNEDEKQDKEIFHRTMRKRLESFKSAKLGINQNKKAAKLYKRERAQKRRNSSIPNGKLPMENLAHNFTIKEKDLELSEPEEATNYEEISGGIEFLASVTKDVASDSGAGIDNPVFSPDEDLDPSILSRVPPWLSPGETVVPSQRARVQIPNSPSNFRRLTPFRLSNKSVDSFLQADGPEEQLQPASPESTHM

As for `CN1Cc2c(Cl)cc(Cl)cc2[C@H](c2cccc(S(=O)(=O)NCCOCCOCCNC(=O)NCCCCNC(=O)NCCOCCOCCNS(=O)(=O)c3cccc([C@@H]4CN(C)Cc5c(Cl)cc(Cl)cc54)c3)c2)C1` [Cpd 002], the endpoint plasma aldosterone entry in experiment [1] (0.065 mg/g chow, vs vehicle) is on record as “aldosterone increase”. The plasma creatinine result in experiment [1] (endpoint day 27, 0.065 mg/g chow, dihydrochloride salt, vs vehicle) is recorded as “reduced plasma creatinine”. In experiment [1] (setting [4]), the “plasma FGF-23” value is listed as “reduced plasma FGF-23” and the plasma phosphorus entry is given as “reduced plasma phosphorus; also recorded: anti-hyperphosphatemic effects”. In experiment [1] (setting [5]), the “calcium and phosphorus in the stomach (soft tissue calcification)” value was “reduced calcium and phosphorus in the stomach”; the “vascular calcification as aortic mineral content” value is recorded as “reduced vascular calcification; also recorded: reduce associated vascular calcification”. Moreover, in experiment [1] (setting [6]), the “endpoint heart weight (heart hypertrophy)” value is “lessened; also recorded: reduce both heart hypertrophy and renal hypertrophy”; the “endpoint kidney remnant weight (renal hypertrophy)” value was “lessened; also recorded: reduce both heart hypertrophy and renal hypertrophy”. In experiment [1] (treatment group vs vehicle), the moribundity entry is given as “decreased moribundity” and the mortality outcome is “trend toward improved mortality outcome”. The “Rat NHE3 pIC50 Persistent” value in experiment [2] is 8.4.

As to `CN1Cc2c(Cl)cc(Cl)cc2[C@@H](c2cccc(S(=O)(=O)NCCOCCOCCNC(=O)NCCCCNC(=O)NCCOCCOCCNS(=O)(=O)c3cccc([C@H]4CN(C)Cc5c(Cl)cc(Cl)cc54)c3)c2)C1` [Cpd 004], the “Rat NHE3 pIC50 Persistent” value in experiment [2] was determined as 5.6. In experiment [3], the “effect on fecal form” value is reported as “no significant effect”.
